According to the Deep4Chem optical property database:
Blank lines part the entries; values can stand above or below the compound they belong to.

Assay: solvent given as SMILES

Structure (SMILES): C1=Nc2cccc3cccc(c23)N1
emission maximum (in CC#N): 476 nm | emission maximum (in CO): 485 nm | emission maximum (in CS(C)=O): 482 nm | emission maximum (in Cc1ccccc1): 472 nm

Structure (SMILES): Nc1cc(N)cc(-c2nc3ccccc3s2)c1
emission maximum (in C1CCCCC1): 410.5 nm | emission maximum (in C1COCCO1): 458 nm | emission maximum (in CC#N): 482 nm | emission maximum (in CC(C)O): 513 nm | emission maximum (in CCOC(C)=O): 468 nm | emission maximum (in CCOCC): 457 nm | emission maximum (in CO): 519 nm | emission maximum (in O): 541 nm

Structure (SMILES): O=P1(c2ccccc2)C(c2ccc(C(F)(F)F)cc2)=Cc2ccccc21 (stereo not drawn)
emission maximum (in C1CCOC1): 414 nm

Structure (SMILES): Clc1cccc(-c2nc3sc4ccccc4c3s2)c1
emission maximum (in CS(C)=O): 420 nm

Structure (SMILES): CCC1=C(C)C2=Cc3c4ccccc4c4n3[B-](c3ccc5cc6ccccc6cc5c3)(Oc3ccccc3-4)[N+]2=C1C (stereo not drawn)
emission maximum (in CC#N): 635 nm | emission maximum (in CCCCCC): 636 nm | emission maximum (in Cc1ccccc1): 641 nm | emission maximum (in ClCCl): 639 nm

Structure (SMILES): N#Cc1ccc(-n2c3ccccc3c3c2c2ccccc2n3-c2ccccc2)cc1
emission maximum (in Cc1ccccc1): 460 nm

Structure (SMILES): Cc1ccc(N(c2ccc(C)cc2)c2ccc(-c3ccc(C=C(C#N)C#N)cc3)cc2)cc1
emission maximum (in ClC(Cl)Cl): 676 nm

Structure (SMILES): COc1cc(OC)c2c(c1)C(=O)c1ccccc1-2
emission maximum (in C1CCCCC1): 537 nm | emission maximum (in CC#N): 592 nm

Structure (SMILES): CCCCCCc1ccc2c3c(ccc2c1)O[B-](c1ccccc1)(c1ccccc1)[N+](c1ccc([N+]2=Cc4c(ccc5cc(CCCCCC)ccc45)O[B-]2(c2ccccc2)c2ccccc2)cc1)=C3
emission maximum (in C1CCOC1): 568 nm | emission maximum (in CC#N): 561 nm | emission maximum (in Cc1ccccc1): 569 nm | emission maximum (in ClCCl): 568 nm

Structure (SMILES): Oc1ccc(-c2ccco2)cc1-c1nc2ccccc2s1
emission maximum (in CCO): 435 nm | emission maximum (in ClCCl): 406 nm | emission maximum (in O): 577 nm

Structure (SMILES): COc1cc2c(cc1OC)C1=C[C@H](c3ccccc3)C3(C(C(=O)O[C@@H]4C[C@H]5CC[C@@H]4C5)=C(C(=O)O[C@H]4C[C@@H]5CC[C@H]4C5)N1CC2)c1ccccc1-c1ccccc13
emission maximum (in ClCCl): 422 nm

Structure (SMILES): CCCC1(CCC)c2cc(-c3ccc(OC)cc3)ccc2-c2ccc(-c3ccc4c(c3)C(CCC)(CCC)c3cc(-c5ccc(OC)cc5)ccc3-4)cc21
emission maximum (in C1CCCCC1): 395 nm

Structure (SMILES): COc1nc(Nc2cc3ccc4cccc5ccc(c2)c3c45)nc(OC)n1
emission maximum (in CC#N): 393 nm | emission maximum (in CCCCOCCCC): 393 nm | emission maximum (in CO): 392 nm

Structure (SMILES): Cc1ccc(/C2=c3\cc/c(o3)=C(\c3ccc(C)cc3)c3ccc([nH]3)-c3ccc4n3[P-](=O)(=O)[N+]3=C(C=CC3=C4c3cccs3)c3ccc2[nH]3)cc1
emission maximum (in ClC(Cl)Cl): 736 nm

Structure (SMILES): COc1ccc(C2=C(c3ccc([N+](=O)[O-])cc3)C(c3ccccc3)=[N+]3C2=Nc2c(-c4ccc(OC)cc4)c(-c4ccc([N+](=O)[O-])cc4)c(-c4ccccc4)n2[B-]3(F)F)cc1
emission maximum (in Cc1ccccc1): 688 nm

Structure (SMILES): C(=C(c1ccccc1)c1ccccc1)c1ccc(-c2ccc(-c3nc4c5ccccc5c5ccccc5c4n3-c3cccc(-c4ccc(C=C(c5ccccc5)c5ccccc5)cc4)c3)cc2)cc1
emission maximum (in C1CCOC1): 449 nm

Structure (SMILES): C(=C\c1cnccn1)/c1ccc(N(c2ccccc2)c2ccc(/C=C/c3cnccn3)cc2)cc1
emission maximum (in ClCCl): 569 nm

Structure (SMILES): Cc1nc(-c2cc(N)ccc2O)n2c1CCCC2
emission maximum (in ClCCl): 543 nm

Structure (SMILES): COc1ccc2nc(/N=N/c3ccc(N(C)C)cc3)sc2c1
emission maximum (in CC#N): 574 nm | emission maximum (in ClCCl): 572 nm

Structure (SMILES): CCCCCCCCN1c2ccccc2Sc2cc(/C=C/c3ccc(N(c4ccc(/C=C/c5ccc6c(c5)Sc5ccccc5N6CCCCCCCC)cc4)c4ccc(/C=C/c5ccc(/C=C/c6ccc(N(c7ccc(/C=C/c8ccc9c(c8)Sc8ccccc8N9CCCCCCCC)cc7)c7ccc(/C=C/c8ccc9c(c8)Sc8ccccc8N9CCCCCCCC)cc7)cc6)c6nsnc56)cc4)cc3)ccc21
emission maximum (in C1CCOC1): 654 nm | emission maximum (in CCOC(C)=O): 644 nm | emission maximum (in CN(C)C=O): 750 nm | emission maximum (in Cc1ccccc1): 620 nm | emission maximum (in ClC(Cl)Cl): 663 nm | emission maximum (in ClCCl): 710 nm

Structure (SMILES): C[C@]12SC(=O)C=C1c1nc(-c3ccc(O)cc3)[nH]c1C1=CC(=O)S[C@@]12C
emission maximum (in CC#N): 536 nm

Structure (SMILES): N#Cc1c(-n2c3ccccc3c3ccccc32)cccc1-n1c2ccccc2c2ccccc21
emission maximum (in Cc1ccccc1): 403 nm | emission maximum (in O=P(c1ccccc1)(c1ccccc1)c1ccccc1Oc1ccccc1P(=O)(c1ccccc1)c1ccccc1): 415 nm

Structure (SMILES): N#Cc1ccc(/C2=C3N=C(C(c4ccccc4)=C/3c3ccccc3)/C(c3ccc(C#N)cc3)=c3\[nH]/c(c(-c4ccccc4)c3-c3ccccc3)=C(/c3ccc(C#N)cc3)C3=N/C(=C(/c4ccc(C#N)cc4)c4[nH]c2c(-c2ccccc2)c4-c2ccccc2)C(c2ccccc2)=C3c2ccccc2)cc1
emission maximum (in ClCCl): 725 nm

Structure (SMILES): COC(=O)c1ccc(C2=C3C=CC(C)=[N+]3[B-](F)(F)n3c(C)ccc32)cc1
emission maximum (in C1CCCCC1): 533 nm | emission maximum (in C1CCOC1): 536 nm | emission maximum (in CC#N): 531 nm | emission maximum (in CCOC(C)=O): 533 nm | emission maximum (in CO): 533 nm | emission maximum (in Cc1ccccc1): 538 nm | emission maximum (in ClC(Cl)Cl): 538 nm

Structure (SMILES): [O-][n+]1c(/C=C/c2ccccc2)nc(N2CCOCC2)c2c1CCCC2
emission maximum (in ClCCl): 535 nm

Structure (SMILES): CC(C)(C)c1ccc2c(c1)c1cc(C(C)(C)C)ccc1n2-c1ccc(N(c2ccc(-c3ccc(-c4ccc(-c5ccc(-c6ccc(N(c7ccc(-n8c9ccc(C(C)(C)C)cc9c9cc(C(C)(C)C)ccc98)cc7)c7ccc(-n8c9ccc(C(C)(C)C)cc9c9cc(C(C)(C)C)ccc98)cc7)cc6)cc5)c5nsnc45)cc3)cc2)c2ccc(-n3c4ccc(C(C)(C)C)cc4c4cc(C(C)(C)C)ccc43)cc2)cc1
emission maximum (in ClCCl): 513 nm

Structure (SMILES): CNc1ccc2nc3cc(Cl)c(Cl)cc3nc2c1
emission maximum (in CCO): 599 nm

Structure (SMILES): CC(C)(C)c1ccc(-c2cc(-c3ccc(-c4cc(-c5ccc(C(C)(C)C)cc5)c(C#N)s4)s3)sc2C#N)cc1
emission maximum (in ClCCl): 443 nm

Structure (SMILES): CCC(C)(C)c1ccc2c(c1)C(CC)(CC)c1cc(-c3ccc4c(c3)C(CC)(CC)c3cc(C(C)(C)CC)ccc3-4)ccc1-2
emission maximum (in C1CCCCC1): 371 nm

Structure (SMILES): Cn1ccc(-n2cncn2)nc1=O
emission maximum (in O): 366 nm

Structure (SMILES): COc1ccc(-c2cn3cc(C)c[n+]3[n-]2)cc1
emission maximum (in ClCCl): 421 nm

Structure (SMILES): CCCCCC(CC)C1(C(CC)CCCCC)c2ccccc2-c2ccc(C#Cc3cc(C#Cc4ccc5c(c4)C(C(CC)CCCCC)(C(CC)CCCCC)c4ccccc4-5)c4ccc5c(C#Cc6ccc7c(c6)C(C(CC)CCCCC)(C(CC)CCCCC)c6ccccc6-7)cc(C#Cc6ccc7c(c6)C(C(CC)CCCCC)(C(CC)CCCCC)c6ccccc6-7)c6ccc3c4c65)cc21 (stereo not drawn)
emission maximum (in C1CCCCC1): 507 nm | emission maximum (in C1CCOC1): 513 nm | emission maximum (in CCOC(C)=O): 509 nm | emission maximum (in CN(C)C=O): 518 nm | emission maximum (in Cc1ccccc1): 513 nm | emission maximum (in ClC(Cl)Cl): 514 nm | emission maximum (in ClCCl): 514 nm

Structure (SMILES): NCCCCCCCCCCCCN1C(=O)c2ccc3c4ccc5c6c(ccc(c7ccc(c2c37)C1=O)c64)C(=O)N(CCCCCCCCCCCCN)C5=O
emission maximum (in CN(C)C=O): 537 nm

Structure (SMILES): Nc1ccccc1/C=C/C(F)(F)F
emission maximum (in C1CCOC1): 427 nm

Structure (SMILES): COc1ccc(-c2ncccn2)cc1
emission maximum (in ClCCl): 356 nm

Structure (SMILES): CCC1=C(C)C2=C(C)c3cccn3[B-](F)(F)[N+]2=C1C
emission maximum (in C1CCCCC1): 515 nm | emission maximum (in CC(C)=O): 512.5 nm | emission maximum (in CCO): 513.5 nm | emission maximum (in CCOC(C)=O): 512.5 nm | emission maximum (in CO): 512.5 nm | emission maximum (in OCC(F)(F)F): 511 nm

Further lines, results first:

emission maximum (in ClCCl): 550 nm
Structure (SMILES): CN(C)c1ccc(/C=C/c2cnc(-c3ccncc3)o2)cc1

emission maximum (in CO): 813 nm
Structure (SMILES): CC1(C)C(/C=C/C2=C(Cl)C(=C/C=C3/N(Cc4ccccc4)c4ccccc4C3(C)C)/CCC2)=[N+](Cc2ccccc2)c2ccccc21

emission maximum (in CS(C)=O): 447 nm
Structure (SMILES): c1ccc2c(-c3nc4sc5ccccc5c4s3)cccc2c1

emission maximum (in ClCCl): 453 nm
Structure (SMILES): N#CC(C#N)=Cc1ccc2c(c1)c1cc(C=C(C#N)C#N)ccc1n2-c1cccc2ccccc12

emission maximum (in ClCCl): 458 nm
Structure (SMILES): CC(=O)c1ccc(C#Cc2ccc(-c3cc(N(C)C)c4ccccc4c3)cc2)cc1

emission maximum (in ClCCl): 482 nm
Structure (SMILES): Cc1c(C(=O)c2ccccc2Cl)c2ccc3cccc4c5cccc6ccc1c(c65)c2c34

emission maximum (in ClC(Cl)Cl): 495 nm
Structure (SMILES): CCCCCCN1C(=O)c2cccc3cc(/N=C\c4nc5ccccc5s4)cc(c23)C1=O

emission maximum (in CCO): 564 nm | emission maximum (in O): 575 nm
Structure (SMILES): CN(C)c1ccc2c(-c3cc(C(=O)[O-])ccc3C(=O)[O-])c3ccc(=[N+](C)C)cc-3oc2c1

emission maximum (in CS(C)=O): 506 nm | emission maximum (in ClCCl): 517 nm
Structure (SMILES): O=c1oc2ccccc2c2c1c(=O)oc1ccc3ccc(O)cc3c12

emission maximum (in C1COCCO1): 464 nm
Structure (SMILES): N#Cc1ccc(/C=C2\N=C(c3ccccc3)NC2=O)cc1

emission maximum (in CC1CCCCC1): 445 nm
Structure (SMILES): CC(C)(C)c1ccc2cc3c4cccc5cccc(c6cc(C(C)(C)C)cc(c2c1)c63)c54

emission maximum (in C1COCCO1): 461 nm
Structure (SMILES): CC(=O)Nc1ccc(C2=N/C(=C\c3ccc(C#N)cc3)C(=O)O2)cc1

emission maximum (in CCO): 619 nm
Structure (SMILES): Nc1ccc2nc3c4ccccc4c(=[NH2+])cc-3oc2c1

emission maximum (in CCCCCC): 376 nm | emission maximum (in CO): 376 nm | emission maximum (in ClCCl): 377 nm
Structure (SMILES): CC(C)c1ccc2ccc3cccc4ccc1c2c34

emission maximum (in CS(C)=O): 583 nm | emission maximum (in ClC(Cl)Cl): 544 nm
Structure (SMILES): CCCCCCN(c1ccccc1)c1ccc(/C=C/c2cc(=O)oc3cc(C)ccc23)cc1

emission maximum (in CCO): 582 nm | emission maximum (in ClCCl): 579 nm
Structure (SMILES): Cc1ccccc1-c1c2ccc(=[N+]3CCOCC3)cc-2oc2cc(N3CCCCC3)ccc12

emission maximum (in CS(C)=O): 542 nm | emission maximum (in ClC(Cl)Cl): 504 nm
Structure (SMILES): CCCCCCn1c2ccccc2c2cc(/C=C/c3cc(=O)oc4cc(C)ccc34)ccc21

emission maximum (in ClCCl): 606 nm
Structure (SMILES): CCCCCCOC(=O)/C=C/C1=CC2=C(c3c(C)cc(C)cc3C)c3cc(/C=C/C(=O)OCCCCCC)cn3[B-](F)(F)[N+]2=C1

emission maximum (in CC#N): 502 nm | emission maximum (in CN(C)C=O): 573 nm | emission maximum (in ClCCl): 535 nm
Structure (SMILES): CCN(CC)c1ccc(/C=N/c2ccccc2/N=C/c2ccc(N(CC)CC)cc2O)c(O)c1

emission maximum (in C1CCOC1): 539 nm | emission maximum (in CC#N): 580 nm | emission maximum (in CCO): 520 nm | emission maximum (in CCOC(C)=O): 528 nm | emission maximum (in CN(C)C=O): 581 nm | emission maximum (in ClCCl): 568 nm | emission maximum (in O): 570 nm | emission maximum (in c1ccccc1): 505 nm
Structure (SMILES): CCCCn1c2ccc(/C=C(\C#N)c3ccc([N+](=O)[O-])cc3)cc2c2cc(Cn3c(-c4ccc5c(c4)c4ccccc4n5CCCC)nc4ccccc43)ccc21

emission maximum (in ClCCl): 538 nm
Structure (SMILES): CC1=NN(c2cccc3ccccc23)[B-](F)(F)[n+]2ccccc21
